“Also recorded” adds a separate entry of the source.
Legend:
[1] = tested on: pYAP (Ser127) in human HaCaT cells; experiment: Target Identification Assay: western blot for pYAP in HaCaT cell lysates; format: cell-based; settings: 9 μM for 1 hour in the presence of 0.5 μM Okadaic acid
Method: Compounds of Formula A1, or subformulae thereof, selectively target LATS1/2 versus MST1/2 kinases. To identify the target of the hits from the YAP translocation assay screen, the Target Identification Assay as described in the Examples Section A was performed. The results of the assay are described in FIGS. 33A to 33C.
It is consistent with the consensus in the field that LATS is responsible for YAP phosphorylation.

[2] = tested on: Corneal Endothelial Cells (CECs); experiment: ZO-1 immunolabelling of expanded CECs; format: cell-based, human; settings: vs vehicle DMSO
Source text: CECs proliferated in the presence of the vehicle alone (DMSO) show signs of polymegatism characteristic of dysfunctional CECs (FIG. 18a).
(2) The cells are able to form tight junctions. This may be checked by a standard technique known in the art, immunofluorescence staining of tight-junction marker Zonula Occludens-1 (ZO-1).
(3) The cells are able to be regularly arranged in the cell layer. This may be checked by a standard technique known in the art, immunofluorescence staining of tight-junction marker Zonula Occludens-1 (ZO-1).

[3] = tested on: human corneal endothelial cells (CECs); experiment: CEC population expansion, markers Collagen 8a2, AQP1, SLC4A11, RPE65, CD31 and Na/K ATPase (RT-PCR, immunohistochemistry); format: cell-based; settings: 10 micromolar, 10 days
Method: In order to verify that the expanded cell population expresses genes normally expressed by corneal endothelial cells in vivo, cells were cultured and RT-PCR analysis was then performed to measure the expression levels of Collagen 8a2, AQP1, SLC4A11, RPE65 and CD31. Immunohistochemical analysis was also performed to analyse the levels of Na/K ATPase and Collagen 8a2 as follows.
(§1) Cells were cultured at 37° C. in 5% CO2 for 10 days.
To perform the RT-PCR analysis, total RNA was extracted using Trizol (Invitrogen), RNeasy Mini and QIA Shredder (Qiagen) according to manufacturer's protocol. RNA quality and quantity were measured using Nanodrop 100 (Thermo-Fisher Scientific) and Bioanalyzer 2100 (Agilent Technologies). cDNA was prepared by reverse transcription and relative mRNA expression was assessed by quantitative RT-PCR using an 7900HT system (Applied Biosystems). The following cycling parameters were used:
1) 50° C. for 2 minutes; 2) 95° C. for 10 minutes; 3) 95° C. for 15 seconds 4) 60° C. for 1 minute. Steps 3-4 were repeated 40 times.
Actin mRNA levels were measured and used as a endogenous controls to normalize gene expression levels and calculate delta Ct values according to the formula dCt=Ct for gene of interest−Ct for endogenous control. Primers were obtained from Applied Biosystems. […]

[4] = tested on: human corneal endothelial cells (CECs); experiment: CEC population expansion, immunohistochemical observation of cellular morphology (ZO-1); format: cell-based; settings: 10 micromolar, 10 days
Method: as §1
In order to observe that the expanded cell population has the required cellular morphology for use in vivo, the ability of the cells to form tight junctions was measured by immunohistochemistry as follows. Cell cultures were fixed with 4% PFA for 20 minutes, permeabilized and blocked in a blocking solution of 0.3% Triton X-100 (Sigma-Aldrich) and 3% donkey serum in PBS for 30 minutes. Cells were then labeled with primary antibody in the blocking solution for 12 hours at 4° C. Primary antibody used was ZO-1 from Invitrogen. Samples were washed in PBS three times and donkey-raised secondary antibody Alexa Fluor 488 (Molecular Probes) at 1:500 dilution were applied for 30 minutes at room temperature. Cells were washed three times in PBS and nuclei (DNA) were stained with Sytox Orange (567 nm, Life Technologies). […] Fluorescence was observed using a Zeiss LSM 880 confocal microscope.

[5] = tested on: corneal endothelial cell population; experiment: Immunohistochemical analysis of expanded corneal endothelial cell population; format: cell-based, human
Source text: (1) The cells express Na/K ATPase. The expression of Na/K ATPase may be estimated by standard techniques known in the art, such as for example immunohistochemistry, quantitative RT-PCR or by FACS analysis.

Cyr61 mRNA in liver = experiment: In vivo treatment of mice: quantitative RT-PCR, Cyr61; settings: mouse liver, single oral dose 10 mg/kg, 2 h post-dose, relative to vehicle, mean+/-SEM
Method: (§2) All animal studies were carried out in accordance with federal, state, local and institutional guidelines governing the use of laboratory animals in research. Male C57BL/6J mice (age 8-10 weeks) were purchased from Jackson Labs (Bar Harbor, Me.). Example 46 was formulated for oral dosing at 3 mg/ml, and Example 261 at 1 mg/ml, in a suspension of methylcellulose:Tween80:Water (0.5:0.5:99). Single oral dose of either compound was at 10 mL/kg body weight. Blood and liver tissue were collected under deep anesthesia (isoflurane) at either 2 h post-dose (for mRNA analysis) or 24 h post-dose (for immunohistochemistry).
(§3) Total liver RNA was isolated from tissue after storage in RNAlater reagent (Qiagen), using a TRIzol method according to the manufacturer's instructions (Life Technologies). Relative mRNA abundance was measured by quantitative RT-PCR using TaqMan gene expression assays and reagents according to standard protocols (Applied Biosystems). Mouse probes for YAP target genes were CTGF (Mm01192933_g1) and Cyr61 (Mm00487498_m1). […] Relative changes in mRNA were calculated by the ΔΔCt method. Changes in gene expression with compound treatment are expressed as fold-change relative to the vehicle group.

[6] = tested on: Ki67-positive hepatocytes; experiment: In vivo treatment of mice: immunohistochemistry (IHC) for Ki67 in liver; settings: mouse liver, single oral dose 10 mg/kg, 24 h post-dose, relative to vehicle, mean+/-SEM
Method: as §2
Liver tissue was fixed in 10% neutral buffered formalin for 24-48 h. Processing and embedding in paraffin was by standard procedures. Sections were cut at 5 microns thickness and stained using a Ventana automated system. Primary antibody for mouse Ki67 was a rabbit IgG (Bethyl Labs). Ki67-positive hepatocytes were quantified by image analysis using the HALO platform. At least 3 sections per animal were analyzed, from the middle of the medial lobe.

CTGF mRNA in liver = experiment: In vivo treatment of mice: quantitative RT-PCR, CTGF; settings: mouse liver, single oral dose 10 mg/kg, 2 h post-dose, relative to vehicle, mean+/-SEM
Method: as §2, §3

Question: For `Cc1n[nH]cc1-c1nc(NC2(C)CC2)c2ccncc2n1` [Example 133, 2-(3-methyl-1H-pyrazol-4-yl)-N-(1-methylcyclopropyl)pyrido[3,4-d]pyrimidin-4-amine], which “pYAP by western blot” value [1] is on record?
Answer: dramatically inhibited

Question: What does the source list for `CC(C)(O)CC(C)(C)Nc1nc(-c2ccncc2)nc2cnccc12` [Example 49, 2,4-dimethyl-4-{[2-(pyridin-4-yl)pyrido[3,4-d]pyrimidin-4-yl]amino}pentan-2-ol]?
Answer: tight junctions, cell size and morphology of CECs (ZO-1) [2]: form tight junctions, an endothelial structure and retain a normal cell size and morphology; Expression of corneal endothelial cell genes by the expanded CEC population [3]: express genes normally expressed by corneal endothelial cells in vivo, including Collagen 8a2, AQP1, SLC4A11; also recorded: express genes normally expressed by corneal endothelial cells in vivo, including Na/K ATPase; CEC morphology and tight junctions (ZO-1) [4]: retained a normal corneal endothelial cell morphology and the ability to form tight junctions; expression of Na/K ATPase and Collagen 8a2 by immunohistochemistry [5]: express genes normally expressed by corneal endothelial cells in vivo

Question: Which results are given for `CC(C)(C)Nc1cc(-c2ccncc2)nc2cnccc12` [Example 261, N-(tert-butyl)-2-(pyridin-4-yl)-1,7-naphthyridin-4-amine]?
Answer: Cyr61 mRNA (fold-change) (Cyr61 mRNA in liver): 3.9 (+/−0.6) fold-change; Ki67 IHC (fold-change) [6]: 3.1 (+/−0.5) fold-change; CTGF mRNA (fold-change) (CTGF mRNA in liver): 2.5 (+/−0.2) fold-change
